Test results: patent US10383847B2 (priority 2012, dated 2019)
Like-named read-outs stand apart in the source and are kept apart here.

Legend:
[1] = system: primary AML; settings: cited from earlier work
[2] = molecular target: T1, cytochrome P450 1A2 (Homo sapiens, UniProt P05177); settings: cited from earlier work
[3] = system: AML NOD/SCID model; settings: in vivo; cited from earlier work
[4] = system: human myeloblastic leukemic cells; settings: cited from earlier work
[5] = system: HUVEC; settings: cited from earlier work
[6] = system: VCAM-1; settings: cited from earlier work
[7] = molecular target: T1, cytochrome P450 1A2; settings: by oxidation; cited from earlier work
[8] = Chromabs; cited from earlier work
[9] = system: Walker 256 carcino-sarcoma; settings: in vivo; cited from earlier work
[10] = system: primary AML cells; settings: cited from earlier work
[11] = system: K562 cells; settings: cited from earlier work
[12] = system: dogs; settings: 10 mg/kg/d p.o. for 6 months; cited from earlier work
[13] = system: HT-29 colorectal xenografts; settings: in vivo; cited from earlier work
[14] = molecular target: cytochrome P450 2C8 (Homo sapiens, UniProt P10632); settings: cited from earlier work
Chain of cytochrome P450 2C8 (P10632 whole entry): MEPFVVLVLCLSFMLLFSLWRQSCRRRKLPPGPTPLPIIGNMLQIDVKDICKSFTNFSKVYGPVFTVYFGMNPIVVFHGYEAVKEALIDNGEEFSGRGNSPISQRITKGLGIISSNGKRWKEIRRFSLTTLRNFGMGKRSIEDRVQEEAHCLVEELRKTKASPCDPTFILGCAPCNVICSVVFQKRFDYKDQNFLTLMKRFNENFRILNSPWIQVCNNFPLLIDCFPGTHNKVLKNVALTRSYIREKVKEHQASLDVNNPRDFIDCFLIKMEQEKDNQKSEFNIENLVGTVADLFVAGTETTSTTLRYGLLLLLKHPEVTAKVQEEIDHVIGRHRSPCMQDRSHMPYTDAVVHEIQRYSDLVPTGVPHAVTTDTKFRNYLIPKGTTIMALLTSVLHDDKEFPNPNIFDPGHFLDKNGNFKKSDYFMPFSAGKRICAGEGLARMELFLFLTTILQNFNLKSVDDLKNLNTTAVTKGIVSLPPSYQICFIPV

[15] = system: HT29; settings: colorectal cancer; cited from earlier work
[16] = system: HT-29 colorectal cell lines; settings: cited from earlier work
[17] = system: hepatic cytochrome P450 (CYP); settings: hepatic CYP-mediated; cited from earlier work
[18] = system: ECV304; settings: cited from earlier work
[19] = system: HL-60 cells; settings: cited from earlier work
[20] = system: Lewis lung sarcoma; settings: in vivo; cited from earlier work
[21] = system: HL-60 myeloid cells; settings: cited from earlier work
[22] = system: NB4; settings: AML; cited from earlier work
[23] = system: uridine glucuronyltransferases (UGT); settings: direct conjugation without initial cytochrome P450 oxidation, more polar metabolites; cited from earlier work
[24] = system: Jurkat cells; settings: inducing phosphorylation of c-Myb; cited from earlier work
[25] = system: VEGF; settings: cited from earlier work
[26] = system: HL-60; settings: AML; cited from earlier work
[27] = molecular target: glycogen synthase kinase-3β (GSK-3β) (Homo sapiens, UniProt P49841); settings: cited from earlier work
Chain of glycogen synthase kinase-3β (GSK-3β) (P49841 whole entry, species assumed): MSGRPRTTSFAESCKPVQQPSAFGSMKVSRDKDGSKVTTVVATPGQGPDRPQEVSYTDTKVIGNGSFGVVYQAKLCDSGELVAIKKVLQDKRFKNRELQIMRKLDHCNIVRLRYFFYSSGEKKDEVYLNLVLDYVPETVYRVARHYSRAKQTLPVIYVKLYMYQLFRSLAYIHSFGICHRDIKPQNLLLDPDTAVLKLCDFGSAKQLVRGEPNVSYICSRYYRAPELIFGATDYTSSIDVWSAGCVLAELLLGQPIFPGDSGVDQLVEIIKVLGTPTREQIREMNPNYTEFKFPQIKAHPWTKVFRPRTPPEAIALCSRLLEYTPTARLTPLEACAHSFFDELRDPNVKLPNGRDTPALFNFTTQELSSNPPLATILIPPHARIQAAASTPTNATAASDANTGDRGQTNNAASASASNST

[28] = molecular target: cytochrome P450 2C19 (Homo sapiens, UniProt P33261); settings: by oxidation; cited from earlier work
Chain of cytochrome P450 2C19 (P33261 whole entry): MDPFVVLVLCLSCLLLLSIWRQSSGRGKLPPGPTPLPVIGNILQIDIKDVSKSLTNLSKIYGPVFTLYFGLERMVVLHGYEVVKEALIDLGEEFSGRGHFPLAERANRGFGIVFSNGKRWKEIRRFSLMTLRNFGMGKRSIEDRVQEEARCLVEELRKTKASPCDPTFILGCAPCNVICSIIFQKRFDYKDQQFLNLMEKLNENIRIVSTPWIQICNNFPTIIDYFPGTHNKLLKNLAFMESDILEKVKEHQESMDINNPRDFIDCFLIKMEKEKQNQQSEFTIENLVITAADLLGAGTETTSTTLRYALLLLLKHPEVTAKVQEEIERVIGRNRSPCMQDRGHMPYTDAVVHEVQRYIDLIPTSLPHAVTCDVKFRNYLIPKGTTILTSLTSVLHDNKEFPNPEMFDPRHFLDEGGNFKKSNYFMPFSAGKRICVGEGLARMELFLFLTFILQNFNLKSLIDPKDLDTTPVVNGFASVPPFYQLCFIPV

[29] = system: malignant cell lines, particularly AML cell lines (MV 4-11, myeloid cell lines); test: viability of cancer cell lines after meisoindigo treatment; format: cell-based; settings: 0.1-100 μM, 24 and 48 hours
Method: Viability at 48 hours is shown by (♦); viability at 24 hours is shown by (▪).

[30] = system: patients; settings: cited from earlier work
[31] = system: K562; settings: CML; cited from earlier work
[32] = system: AML cells; settings: DKO insensitive to chemotherapy; cited from earlier work
[33] = system: chronic myelogenous leukemia (CML) patients; settings: cited from earlier work
[34] = system: rats; settings: up to 400 mg/kg/d p.o. for 30 days; cited from earlier work
[35] = system: ECV304; settings: cited from earlier work; remark: listed apart in the source
[36] = system: W256 cells; settings: cited from earlier work
[37] = system: murine cancer models; settings: mouse, in vivo; cited from earlier work
[38] = system: AML cell lines; settings: cited from earlier work
[39] = system: HUVEC; settings: cited from earlier work; remark: listed apart in the source
[40] = system: U937; settings: AML; cited from earlier work
[41] = molecular target: T2, NEK9 (Homo sapiens, UniProt Q8TD19); test: competition binding kinase scan
T2 construct: DNA tag / T7 phage fusion; made in house; host or cells: T7 phage in E. coli (BL21-derived) or HEK-293
T2 sequence (Q8TD19 whole entry, the tested form may be a part): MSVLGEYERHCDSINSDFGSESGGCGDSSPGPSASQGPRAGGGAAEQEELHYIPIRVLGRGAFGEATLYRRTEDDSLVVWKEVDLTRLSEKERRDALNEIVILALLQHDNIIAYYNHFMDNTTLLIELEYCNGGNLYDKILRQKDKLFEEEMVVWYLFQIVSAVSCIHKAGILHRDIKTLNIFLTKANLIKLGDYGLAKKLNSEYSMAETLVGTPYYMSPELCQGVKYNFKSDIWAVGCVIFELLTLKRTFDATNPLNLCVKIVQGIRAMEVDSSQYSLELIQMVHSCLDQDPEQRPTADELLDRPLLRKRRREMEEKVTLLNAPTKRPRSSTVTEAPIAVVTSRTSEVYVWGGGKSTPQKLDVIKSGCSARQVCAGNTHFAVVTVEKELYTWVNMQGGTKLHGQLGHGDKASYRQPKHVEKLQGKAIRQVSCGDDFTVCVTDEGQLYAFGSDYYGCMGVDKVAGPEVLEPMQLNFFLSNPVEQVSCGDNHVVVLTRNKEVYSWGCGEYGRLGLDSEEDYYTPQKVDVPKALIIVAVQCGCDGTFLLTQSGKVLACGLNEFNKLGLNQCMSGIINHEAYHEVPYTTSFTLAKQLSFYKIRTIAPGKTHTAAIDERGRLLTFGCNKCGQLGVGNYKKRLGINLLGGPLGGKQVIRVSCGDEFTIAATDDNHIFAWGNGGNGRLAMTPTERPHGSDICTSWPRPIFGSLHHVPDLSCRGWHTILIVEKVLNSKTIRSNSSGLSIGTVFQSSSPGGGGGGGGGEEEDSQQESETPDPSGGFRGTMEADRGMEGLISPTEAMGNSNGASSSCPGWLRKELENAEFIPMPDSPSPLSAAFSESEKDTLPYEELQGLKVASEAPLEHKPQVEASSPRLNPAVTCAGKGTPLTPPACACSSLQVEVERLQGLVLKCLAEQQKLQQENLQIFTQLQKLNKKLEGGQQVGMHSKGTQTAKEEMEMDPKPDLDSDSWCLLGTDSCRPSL
Method: (§1) The scanning procedure is based on a competition binding assay that quantitatively measures the ability of a compound to compete with an immobilized, active-site directed ligand. The assay is performed by combining three components: DNA-tagged kinase; immobilized ligand; and a test compound. The ability of the test compound to compete with the immobilized ligand is measured via quantitative PCR of the DNA tag. This procedure is described in T. A. Carter et al., “Inhibition of Drug-Resistant Mutants of ABL, KIT, and EGF Receptor Kinases,” Proc. Natl. Acad. Sci. USA 102: 11011-11016 (2005), incorporated herein by this reference.
(§2) Kinase assays were carried out as follows: For most assays, kinase-tagged T7 phage strains were grown in parallel in 24-well blocks in an Escherichia coli host derived from the BL21 strain. E. coli were grown to log-phase and infected with T7 phage from a frozen stock (multiplicity of infection=0.4) and incubated with shaking at 32° C. until lysis (90-150 minutes). The lysates were centrifuged (6,000×g) and filtered (0.2 μm) to remove cell debris. The remaining kinases were produced in HEK-293 cells and subsequently tagged with DNA for qPCR detection. Streptavidin-coated magnetic beads were treated with biotinylated small molecule ligands for 30 minutes at room temperature to generate affinity resins for kinase assays. The liganded beads were blocked with excess biotin and washed with blocking buffer (SeaBlock (Pierce), 1% BSA, 0.05% Tween 20, 1 mM DTT) to remove unbound ligand and to reduce nonspecific phage binding. Binding reactions were assembled by combining kinases, liganded affinity beads, and test compounds in 1× binding buffer (20% SeaBlock, 0.17×PBS, 0.05% Tween 20, 6 mM DTT). Test compounds were prepared as 40×stocks in 100% DMSO and directly diluted into the assay. All reactions were performed in polypropylene 384-well plates in a final volume of 0.04 mL. The assay plates were incubated at room temperature with shaking for 1 hour and the affinity beads were washed with wash buffer (1×PBS, 0.05% Tween 20). The beads were then re-suspended in elution buffer (1×PBS, 0.05% Tween 20, 0.5 μM non-biotinylated affinity ligand) and incubated at room temperature with shaking for 30 minutes. The kinase concentration in the eluates was measured by qPCR.
(§3) The compounds were screened at the requested concentrations, and results for primary screen binding interactions were reported as “% Ctrl,” where lower numbers indicate stronger hits (i.e., an increased degree of inhibition of kinase activity) as follows (Equation (1)): […]

[42] = molecular target: T3, STK25 (Homo sapiens, UniProt O00506); test: competition binding kinase scan; settings: FIGS. 4 and 6
T3 construct: DNA tag / T7 phage fusion; made in house; host or cells: T7 phage in E. coli (BL21-derived) or HEK-293
T3 sequence (O00506 whole entry, the tested form may be a part): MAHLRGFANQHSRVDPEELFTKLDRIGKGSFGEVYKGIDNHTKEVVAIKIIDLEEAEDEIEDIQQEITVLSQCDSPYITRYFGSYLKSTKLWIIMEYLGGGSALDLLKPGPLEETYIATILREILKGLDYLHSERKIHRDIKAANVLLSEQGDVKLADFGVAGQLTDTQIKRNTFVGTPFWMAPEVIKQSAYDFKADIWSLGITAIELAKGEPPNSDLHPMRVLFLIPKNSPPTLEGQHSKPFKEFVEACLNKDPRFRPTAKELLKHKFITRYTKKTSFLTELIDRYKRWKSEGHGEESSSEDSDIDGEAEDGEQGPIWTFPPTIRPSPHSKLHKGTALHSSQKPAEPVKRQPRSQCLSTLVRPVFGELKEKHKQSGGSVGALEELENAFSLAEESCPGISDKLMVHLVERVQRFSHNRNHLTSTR
Method: as §1, §2, §3

[43] = molecular target: T4, ERBB3 (Homo sapiens, UniProt P21860); test: competition binding kinase scan; settings: FIGS. 4 and 6
T4 construct: DNA tag / T7 phage fusion; made in house; host or cells: T7 phage in E. coli (BL21-derived) or HEK-293
T4 sequence (P21860 20-1342): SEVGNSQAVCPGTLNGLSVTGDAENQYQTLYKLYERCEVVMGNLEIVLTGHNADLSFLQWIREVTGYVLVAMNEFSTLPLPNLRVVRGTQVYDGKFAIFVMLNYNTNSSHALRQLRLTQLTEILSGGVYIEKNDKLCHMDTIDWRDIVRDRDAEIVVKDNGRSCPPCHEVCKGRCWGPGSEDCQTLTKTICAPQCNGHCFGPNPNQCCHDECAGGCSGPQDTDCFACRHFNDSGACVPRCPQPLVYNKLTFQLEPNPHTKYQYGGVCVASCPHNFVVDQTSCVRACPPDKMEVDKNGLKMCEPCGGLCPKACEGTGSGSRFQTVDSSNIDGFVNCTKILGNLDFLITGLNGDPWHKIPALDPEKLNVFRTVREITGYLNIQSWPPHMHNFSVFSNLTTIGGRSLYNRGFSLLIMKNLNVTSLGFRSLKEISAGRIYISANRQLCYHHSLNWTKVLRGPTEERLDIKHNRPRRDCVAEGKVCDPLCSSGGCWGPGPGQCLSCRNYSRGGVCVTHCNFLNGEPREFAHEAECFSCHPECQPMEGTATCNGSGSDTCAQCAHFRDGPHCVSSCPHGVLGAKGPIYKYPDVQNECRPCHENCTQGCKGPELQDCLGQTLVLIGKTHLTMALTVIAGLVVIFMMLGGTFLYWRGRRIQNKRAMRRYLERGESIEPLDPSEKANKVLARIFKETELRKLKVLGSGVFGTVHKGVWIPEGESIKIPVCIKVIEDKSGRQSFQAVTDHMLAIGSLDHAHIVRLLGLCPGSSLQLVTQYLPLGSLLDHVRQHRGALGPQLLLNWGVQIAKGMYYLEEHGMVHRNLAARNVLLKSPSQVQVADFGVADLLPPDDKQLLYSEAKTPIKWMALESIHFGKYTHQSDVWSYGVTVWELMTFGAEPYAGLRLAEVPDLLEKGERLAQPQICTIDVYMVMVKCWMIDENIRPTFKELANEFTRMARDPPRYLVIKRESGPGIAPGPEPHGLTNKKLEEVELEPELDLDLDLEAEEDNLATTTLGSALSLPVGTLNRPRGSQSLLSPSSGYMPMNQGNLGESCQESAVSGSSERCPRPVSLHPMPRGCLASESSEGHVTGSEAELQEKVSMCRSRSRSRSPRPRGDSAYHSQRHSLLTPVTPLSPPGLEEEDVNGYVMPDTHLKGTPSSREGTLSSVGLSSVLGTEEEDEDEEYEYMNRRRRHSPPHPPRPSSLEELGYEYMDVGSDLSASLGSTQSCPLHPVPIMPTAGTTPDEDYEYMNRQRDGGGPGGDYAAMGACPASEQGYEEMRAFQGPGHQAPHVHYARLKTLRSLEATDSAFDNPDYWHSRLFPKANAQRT
Method: as §1, §2, §3

[44] = Ames; cited from earlier work

T1 sequence (P05177 whole entry, species assumed): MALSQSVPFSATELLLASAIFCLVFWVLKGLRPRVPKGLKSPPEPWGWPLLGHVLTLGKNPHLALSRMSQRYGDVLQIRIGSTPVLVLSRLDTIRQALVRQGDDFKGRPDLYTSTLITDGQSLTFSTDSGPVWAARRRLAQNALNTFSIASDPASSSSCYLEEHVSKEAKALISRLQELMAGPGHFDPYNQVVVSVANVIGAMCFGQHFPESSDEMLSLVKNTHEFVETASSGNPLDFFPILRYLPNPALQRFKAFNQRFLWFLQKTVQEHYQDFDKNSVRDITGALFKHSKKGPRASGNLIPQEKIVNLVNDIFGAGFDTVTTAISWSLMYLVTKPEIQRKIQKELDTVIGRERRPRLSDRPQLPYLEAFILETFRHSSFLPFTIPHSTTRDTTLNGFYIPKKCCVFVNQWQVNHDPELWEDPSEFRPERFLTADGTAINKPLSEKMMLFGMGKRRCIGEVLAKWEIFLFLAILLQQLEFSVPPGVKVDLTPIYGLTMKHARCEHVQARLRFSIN

Question: Which activity against cells [1] does the source give for `CN1C(=O)/C(=C2/C(=O)Nc3ccccc32)c2ccccc21` [Meisoindigo, 3-(1,2-dihydro-2-oxo-3H-indol-3-ylidene)-1,3-dihydro-1-methyl-2H-indol-2-one] here?
Answer: activity

Question: And the “inhibition of enzyme, concentration” value [2]?
Answer: low micromolar concentrations

Question: What about the spleen size [3] of the same compound?
Answer: dose-dependent spleen size reduction

Question: And the c-myb gene expression [4]?
Answer: downregulation

Question: What about the differentiation [4] of the same compound?
Answer: promotes differentiation

Question: And the activity against cells [5]?
Answer: activity

Question: What about the VCAM-1 [6] of the same compound?
Answer: decreased

Question: What about the metabolism by enzyme [7] of the same compound?
Answer: metabolized

Question: And the genotoxicity [8]?
Answer: not genotoxic

Question: What about the efficacy in model [9] of the same compound?
Answer: effective

Question: What about the Bcl-2 [10] of the same compound?
Answer: downregulation

Question: What about the p21 [10] of the same compound?
Answer: upregulation

Question: What about the p27 [10] of the same compound?
Answer: upregulation

Question: And the mechanism of apoptosis [11]?
Answer: novel caspase-dependent pathway

Question: What about the tolerability [12] of the same compound?
Answer: well tolerated

Question: And the efficacy in model [13]?
Answer: effective

Question: And the “inhibition of enzyme, concentration” value [14]?
Answer: low micromolar concentrations

Question: What about the activity against cells [15] of the same compound?
Answer: activity

Question: What about the “cell cycle specific effect” value [16] of the same compound?
Answer: G2/M arrest

Question: What about the metabolic routes [17] of the same compound?
Answer: N-demethylation and mono ring hydroxylation

Question: What about the apoptosis [18] of the same compound?
Answer: apoptosis

Question: And the c-myc [19]?
Answer: decreases

Question: And the β-catenin [19]?
Answer: decreases

Question: What about the efficacy in model [20] of the same compound?
Answer: effective

Question: What about the “cleavage of pro-caspase 3, 8, 9 and PARP” value [21] of the same compound?
Answer: stimulates the cleavage

Question: And the activity against cells [22]?
Answer: activity

Question: What about the metabolism by enzyme [23] of the same compound?
Answer: metabolized

Question: And the Ahi-1 [24]?
Answer: upregulation

Question: And the VEGF protection [25]?
Answer: decreased

Question: What about the activity against cells [26] of the same compound?
Answer: activity

Question: And the “concentration at which GSK-3β is inhibited” value [27]?
Answer: 5 to 50 nM

Question: And the metabolism by enzyme [28]?
Answer: metabolized

Question: What about the “killing of malignant cell lines (viability)” value [29] of the same compound?
Answer: effective in killing

Question: What about the “cardiac, hepatic, or renal adverse effects” value ([30]; patients) of the same compound?
Answer: no cardiac, hepatic, or renal adverse effects

Question: What about the “mild nausea and vomiting” value ([30]; patients, spontaneously disappeared in two weeks) of the same compound?
Answer: 30%

Question: And the tolerability ([30]; several patient populations, single agent or in combination with chemotherapy)?
Answer: well tolerated

Question: And the activity against cells [31]?
Answer: activity

Question: And the Bak [32]?
Answer: upregulation

Question: What about the Bax [32] of the same compound?
Answer: upregulation

Question: And the “complete hematologic response, patients” value ([33]; 50-200 mg/d p.o.)?
Answer: 33%

Question: What about the “partial hematologic response, patients” value ([33]; 50-200 mg/d p.o.) of the same compound?
Answer: 58%

Question: And the “reduction of leukocyte count, median” value ([33]; 50-200 mg/d p.o.)?
Answer: 31 days

Question: What about the “reduction of splenomegaly, median” value ([33]; 50-200 mg/d p.o.) of the same compound?
Answer: 25 days

Question: What about the “effect of combination with hydroxyurea” value ([33]; with hydroxyurea) of the same compound?
Answer: synergistic effect

Question: And the tolerability [34]?
Answer: well tolerated

Question: What about the activity against cells [35] of the same compound?
Answer: activity

Question: What about the “DNA and RNA synthesis” value [36] of the same compound?
Answer: inhibition

Question: And the efficacy in model [37]?
Answer: effective

Question: What about the “cell cycle specific effect” value [38] of the same compound?
Answer: arrest in G(O)/G1

Question: And the tubule formulation [39]?
Answer: decreased

Question: And the activity against cells [40]?
Answer: activity

Question: And the “kinase inhibition in screen” value ([41]; FIG. 6)?
Answer: significant inhibition

Question: What about the binding to kinase ([41]; FIGS. 4 and 6) of the same compound?
Answer: strongest binding

Question: And the binding to kinase [42]?
Answer: significant binding

Question: And the binding to kinase [43]?
Answer: significant binding

Question: And the genotoxicity [44]?
Answer: not genotoxic
